Experiment: oral administration: blood concentration of the citrate salt vs free base Compound 1
Format: in vivo
Details: administered orally

## Cc1cccc(C)c1CNc1cc(C(=O)N2CCC2)cn2c(C)c(C)nc12.O=C(O)CC(O)(CC(=O)O)C(=O)O [citrate salt of Compound 1, azetidin-1-yl{8-[(2,6-dimethylbenzyl)amino]-2,3-dimethylimidazo[1,2-a]pyridin-6-yl}methanone citrate salt]
  AUC compared to the free base Compound 1: at least 5 fold
  Cmax compared to the free base Compound 1: at least 11 fold
  time to reach peak blood concentrations compared to the free base Compound 1: faster

— US20260224541A1, “PHARMACEUTICAL FORMULATION, PREPARATION METHOD THEREFOR, AND TABLET COMPOSITION” (JEIL PHARMACEUTICAL CO., LTD., priority 2023, published 2026)
